Here are results for 25 compounds from patent US8987314B2, “Amide, urea or sulfone amide linked benzothiazole inhibitors of endothelial lipase” (Bristol-Myers Squibb Company, priority 2012, dated 2015).

One test concerns the target hepatic lipase (HL) (Homo sapiens (Human), UniProt P11150). Nature of the test: HL assay: hepatic lipase activity with fluorescent substrate A10070 in DMPG vesicles. In kind it is biochemical. In short, it runs like this:
(§1)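 Vesicles prepared: A10070 dried with DMPG, resuspended in HEPES pH 8.0/NaCl/EDTA, sonicated on ice. Enzyme incubated with compound 30 min at 37° C. Reaction started with 1:10 diluted vesicles. Fluorescence (490/530 nm) followed 60 min; slope from 300–900 secs gives rate.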

For another test, the target named is Endothelial lipase (EL) (Homo sapiens (Human), UniProt Q9Y5X9). The test is described as follows: EL assay: endothelial lipase activity with fluorescent substrate A10070 in DMPG vesicles. Type of test: biochemical. In short, it runs like this: as §1
[1] abbreviates: HL partially purified from conditioned media of COS cells, 30 min incubation with compound at 37° C., A10070/DMPG vesicles.
[2] abbreviates: EL from conditioned media of HT-1080 cells, 30 min incubation with compound at 37° C., A10070/DMPG vesicles.

Read-outs that look alike come from different tables or passages of the source.

hepatic lipase (HL), sequence (P11150 23-499, species assumed): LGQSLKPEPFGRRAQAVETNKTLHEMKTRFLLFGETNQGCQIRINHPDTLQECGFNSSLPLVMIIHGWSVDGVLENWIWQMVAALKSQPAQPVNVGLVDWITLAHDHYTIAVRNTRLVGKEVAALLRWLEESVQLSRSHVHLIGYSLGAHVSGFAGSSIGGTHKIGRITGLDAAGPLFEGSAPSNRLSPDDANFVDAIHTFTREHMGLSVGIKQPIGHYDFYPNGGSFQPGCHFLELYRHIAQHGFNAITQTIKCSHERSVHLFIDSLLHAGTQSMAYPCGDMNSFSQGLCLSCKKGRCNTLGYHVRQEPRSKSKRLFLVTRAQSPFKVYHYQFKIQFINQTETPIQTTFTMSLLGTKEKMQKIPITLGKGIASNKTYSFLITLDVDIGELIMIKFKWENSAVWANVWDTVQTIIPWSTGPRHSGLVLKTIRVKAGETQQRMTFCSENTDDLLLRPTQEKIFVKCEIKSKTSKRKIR
Endothelial lipase (EL), sequence (Q9Y5X9 21-500): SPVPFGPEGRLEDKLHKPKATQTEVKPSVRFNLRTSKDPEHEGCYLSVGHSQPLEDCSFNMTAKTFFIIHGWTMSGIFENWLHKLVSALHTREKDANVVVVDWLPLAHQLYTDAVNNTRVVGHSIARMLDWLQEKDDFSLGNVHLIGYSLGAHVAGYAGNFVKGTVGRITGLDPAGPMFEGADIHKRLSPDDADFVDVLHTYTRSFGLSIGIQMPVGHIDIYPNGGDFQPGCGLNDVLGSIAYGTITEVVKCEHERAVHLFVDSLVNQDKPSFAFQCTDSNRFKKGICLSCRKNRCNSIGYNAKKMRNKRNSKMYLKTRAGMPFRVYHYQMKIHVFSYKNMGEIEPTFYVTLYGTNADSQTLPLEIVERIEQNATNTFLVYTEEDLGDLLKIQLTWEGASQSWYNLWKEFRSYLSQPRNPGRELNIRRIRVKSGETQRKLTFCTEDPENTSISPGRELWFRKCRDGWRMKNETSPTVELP

For `NS(=O)(=O)CCNC(=O)C(c1nc2ccc(-c3ccnc(F)c3)cc2s1)S(=O)(=O)Cc1ccccc1` (centres unmarked) [Example B126, 2-(benzylsulfonyl)-2-(6-(2-fluoro-4-pyridinyl)-1,3-benzothiazol-2-yl)-N-(2-sulfamoylethyl)acetamide], the figures for the IC50 at hepatic lipase (HL) and against Endothelial lipase (EL) were 51 nM and less than 10 nM, respectively.
On the same counts, the results for `NS(=O)(=O)CCNC(=O)C(c1nc2ccc(C(=O)NCCc3c[nH]cn3)cc2s1)S(=O)(=O)CCC(F)(F)F` (centres unmarked) [Example B198, N-(2-(1H-imidazol-4-yl)ethyl)-2-(2-oxo-2-((2-sulfamoylethyl)amino)-1-((3,3,3-trifluoropropyl)sul-fonyl)ethyl)-1,3-benzothiazole-6-carboxamide] are 3930 nM and 148 nM.
On the same counts, the results for `Cc1cc2nc(C(C(=O)NCCS(N)(=O)=O)S(=O)(=O)C(C)C)sc2cc1-c1ccc(F)nc1` (centres unmarked) [Example B132, 2-(6-(6-fluoro-3-pyridinyl)-5-methyl-1,3-benzothiazol-2-yl)-2-(isopropylsulfonyl)-N-(2-sulfamoylethyl)acetamide] are 411 nM and less than 10 nM.
Consider `NS(=O)(=O)CCNC(=O)C(c1nc2ccc(-c3ccc(C(=O)N4CC(F)(F)C4)cc3)cc2s1)S(=O)(=O)Cc1ccc(C(F)(F)F)cc1` (centres unmarked) [Example B357, 2-{6-[4-(3,3-difluoro-azetidine-1-carbonyl)phen-yl]-1,3-benzothiazol-2-yl}-N-(2-sulfamoyl-ethyl)-2-{[4-(trifluoromethyl)phen-yl]methanesulfonyl}a-cetamide], for which the IC50 at hepatic lipase (HL) came to 93.2 nM; on Endothelial lipase (EL), 15 nM.
With `N#Cc1cccc(CS(=O)(=O)C(C(=O)NCCS(N)(=O)=O)c2nc3ccc(-c4ccccc4)cc3s2)c1` (centres unmarked) [Example B120, 2-((3-cyanobenzyl)sul-fonyl)-2-(6-phenyl-1,3-benzothiazol-2-yl)-N-(2-sulfamoylethyl)acetamide], the IC50 was 15 nM at hepatic lipase (HL) and less than 10 nM at Endothelial lipase (EL).
As for `CS(=O)(=O)C(C(=O)NCCS(N)(=O)=O)c1nc2ccc(-c3ccc(O)nc3)cc2s1` (centres unmarked) [Example B187, 2-(Methylsulfonyl)-2-(6-(6-oxo-1,6-dihydro-3-pyridinyl)-1,3-benzothiazol-2-yl)-N-(2-sulfamoylethyl)acetamide], the IC50 was 155 nM on hepatic lipase (HL) (setting [1]) and 16 nM on Endothelial lipase (EL) (setting [2]).
Regarding `NC(=O)c1cccc(-c2ccc3nc(C(C(=O)NCCS(N)(=O)=O)S(=O)(=O)CCC(F)(F)F)sc3c2)c1` (centres unmarked) [Example B331, 3-(2-{[(2-sulfamoylethyl)car-bamoyl](3,3,3-trifluoro-propanesulfonyl)methyl}-1,3-benzothiazol-6-yl)benzamide], the IC50 on hepatic lipase (HL) stood at 214 nM; against Endothelial lipase (EL) it was 72.5 nM.
The corresponding values for `NS(=O)(=O)CCNC(=O)C(c1nc2ccc(-c3ccc(C(=O)NCC(F)(F)F)cc3)cc2s1)S(=O)(=O)CCC(F)(F)F` (centres unmarked) [Example B45, 4-(2-(2-oxo-2-((2-sulfamoylethyl)amino)-1-((3,3,3-trifluoropropyl)sul-fonyl)ethyl)-1,3-benzothiazol-6-yl)-N-(2,2,2-trifluoroethyl)ben-zamide] are 38 nM and less than 10 nM.
On the same counts, the results for `CC(C)S(=O)(=O)C(C(=O)NCCS(N)(=O)=O)c1nc2cc(-c3ccc(F)nc3)ccc2s1` (centres unmarked) [Example B312, 2-[5-(6-fluoropyridin-3-yl)-1,3-benzothiazol-2-yl]-2-(propane-2-sulfonyl)-N-(2-sulfamoylethyl)a-cetamide] are 153 nM and 6.2 nM.
On the same counts, the results for `CC(C)Cn1cc(-c2ccc3nc(C(C(=O)NCCS(N)(=O)=O)S(C)(=O)=O)sc3c2)cn1` (centres unmarked) [Example B67, 2-[6-(1-isobutyl-1H-pyrazol-4-yl)-1,3-benzothiazol-2-yl]-2-(methylsulfonyl)-N-(2-sulfamoylethyl)acetamide] are 41 nM and less than 10 nM.
Consider `CS(=O)(=O)C(C(=O)NCCS(N)(=O)=O)c1nc2cc(C(=O)N3CC(F)(F)C3)ccc2s1` (centres unmarked) [Example B393, 2-[5-(3,3-difluoroazetidine-1-carbonyl)-1,3-benzothiazol-2-yl]-2-methanesulfonyl-N-(2-sulfamoylethyl)acetamide], for which the IC50 on hepatic lipase (HL) worked out at 5750 nM; on Endothelial lipase (EL), 50.3 nM.
Take `CS(=O)(=O)C(C(=O)NCCS(N)(=O)=O)c1nc2ccc(-c3ccc(F)cc3)cc2s1` (centres unmarked) [Example B36, 2-(6-(4-fluorophenyl)-1,3-benzothiazol-2-yl)-2-(methylsulfonyl)-N-(2-sulfamoylethyl)acetamide]: the IC50 on hepatic lipase (HL) and against Endothelial lipase (EL) was less than 10 nM each time.
With `COCCS(=O)(=O)C(C(=O)NCc1nnc(C)o1)c1nc2cc(F)c(-c3ccccc3)cc2s1` (centres unmarked) [Example B155, 2-(5-fluoro-6-phenyl-1,3-benzothiazol-2-yl)-2-[(2-methoxyethyl)sulfonyl]-N-[(5-methyl-1,3,4-oxadiazol-2-yl)methyl]acetamide], the IC50 on hepatic lipase (HL) and against Endothelial lipase (EL) was less than 10 nM throughout.
In the case of `NS(=O)(=O)c1cccc(CNC(=O)C(c2nc3ccc(-c4ccncc4Cl)cc3s2)S(=O)(=O)Cc2ccccc2)c1` (centres unmarked) [Example B278, 2-[6-(3-chloropyridin-4-yl)-1,3-benzothiazol-2-yl]-2-phenylmethanesulfonyl-N-[(3-sulfamoylphen-yl)methyl]acetamide], the IC50 amounted to 355 nM against hepatic lipase (HL) and 158 nM on Endothelial lipase (EL).
On the same counts, the results for `NS(=O)(=O)CCNC(=O)C(c1nc2ccc(-c3ccc(CCO)cc3)cc2s1)S(=O)(=O)CCC(F)(F)F` (centres unmarked) [Example B53, 2-(6-(4-(2-hydroxyethyl)phen-yl)-1,3-benzothiazol-2-yl)-N-(2-sulfamoylethyl)-2-((3,3,3-trifluoropropyl)sul-fonyl)acetamide] are 152 nM and less than 10 nM.
For the compound `Cc1cc2nc(C(C(=O)NCCS(N)(=O)=O)S(C)(=O)=O)sc2cc1-c1ccc(C(=O)OC(C)(C)C)cc1` (centres unmarked) [Example B274, tert-butyl 4-(2-{methanesulfonyl[(2-sul-famoylethyl)carbamoyl]meth-yl}-5-methyl-1,3-benzothiazol-6-yl)benzoate], the IC50 against hepatic lipase (HL) is 5.1 nM; at Endothelial lipase (EL), 1.7 nM.
`CC(C)S(=O)(=O)C(C(=O)NCCS(N)(=O)=O)c1nc2ccc(-c3cccc(C(=O)N(C)C)c3)cc2s1` (centres unmarked) [Example B272, N,N-dimethyl-3-{2-[(propane-2-sulfonyl)[(2-sul-famoylethyl)carbamoyl]meth-yl]-1,3-benzothiazol-6-yl}benzamide]: the figures for the IC50 on hepatic lipase (HL) and on Endothelial lipase (EL) were 612 nM and 35.3 nM, respectively.
On the same counts, the results for `CS(=O)(=O)C(C(=O)NCCS(N)(=O)=O)c1nc2ccc(-c3ccc(S(=O)(=O)NCCO)cc3)cc2s1` (centres unmarked) [Example B57, 2-(6-(4-((2-hydroxyeth-yl)sulfamoyl)phenyl)-1,3-benzothiazol-2-yl)-2-(methylsulfonyl)-N-(2-sulfamoylethyl)acetamide] are 144 nM and less than 10 nM.
The corresponding values for `COCCS(=O)(=O)C(C(=O)NCCS(N)(=O)=O)c1nc2ccc(-c3ccccc3)cc2s1` (centres unmarked) [Example B103, 2-((2-methoxyethyl)sul-fonyl)-2-(6-phenyl-1,3-benzothiazol-2-yl)-N-(2-sulfamoylethyl)acetemide] are less than 10 nM and less than 10 nM.
As to `CS(=O)(=O)C(C(=O)NCCS(N)(=O)=O)c1nc2cc(C(=O)O)ccc2s1` (centres unmarked) [Example B392, 2-(1-(Methylsulfonyl)-2-oxo-2-((2-sulfamoylethyl)amino)ethyl)benzo[d]thiazole-5-carboxylic acid], the IC50 at hepatic lipase (HL) (setting [1]) is 92.7 nM; on Endothelial lipase (EL) (setting [2]) it was 3.1 nM.
`COCCS(=O)(=O)C(C(=O)NCc1nnc(C)o1)c1nc2cc(F)c(-c3ccc(C(=O)N4CCCC4)c(F)c3)cc2s1` (centres unmarked) [Example B261, 2-{5-fluoro-6-[3-fluoro-4-(pyrrolidine-1-carbonyl)phen-yl]-1,3-benzothiazol-2-yl}-2-(2-methoxy-ethanesulfonyl)-N-[(5-methyl-1,3,4-oxadiazol-2-yl)methyl]acetamide]: the IC50 on hepatic lipase (HL) is 765 nM; at Endothelial lipase (EL), 101 nM.
For the compound `NS(=O)(=O)CCNC(=O)C(c1nc2ccc(-c3ccc(S(=O)(=O)NCCO)cc3)cc2s1)S(=O)(=O)Cc1ccc(F)cc1` (centres unmarked) [Example B238, 2-[(4-fluorophenyl)methane-sulfonyl]-2-(6-{4-[(2-hydroxyethyl)sulfa-moyl]phenyl}-1,3-benzothiazol-2-yl)-N-(2-sulfamoylethyl)a-cetamide], the IC50 is 234 nM on hepatic lipase (HL) and 9.8 nM against Endothelial lipase (EL).
Take `Cn1nccc1-c1ccc2sc(C(C(=O)NCCS(N)(=O)=O)S(C)(=O)=O)nc2c1` (centres unmarked) [Example B384, 2-methanesulfonyl-2-[5-(1-methyl-1H-pyrazol-5-yl)-1,3-benzothiazol-2-yl]-N-(2-sulfamoylethyl)a-cetamide]: the IC50 is 828 nM against hepatic lipase (HL) and 8.2 nM against Endothelial lipase (EL).
On the same counts, the results for `NS(=O)(=O)CCNC(=O)C(c1nc2ccc(-c3ccc(CO)cc3)cc2s1)S(=O)(=O)Cc1ccc(F)cc1` (centres unmarked) [Example B245, 2-[(4-fluorophenyl)meth-anesulfonyl]-2-{6-[4-(hydroxymethyl)phenyl]-1,3-benzothiazol-2-yl}-N-(2-sulfamoylethyl)a-cetamide] are 130 nM and 2.1 nM.
The corresponding values for `Cc1nnc(CNC(=O)C(c2nc3cc(F)c(-c4ccccc4)cc3s2)S(C)(=O)=O)o1` (centres unmarked) [Example B154, 2-(5-fluoro-6-phenyl-1,3-benzothiazol-2-yl)-N-[(5-methyl-1,3,4-oxadiazol-2-yl)methyl]-2-(methylsulfonyl)acetamide] are 11 nM and less than 10 nM.

The term IC50 denotes the concentration needed to halve the response being measured.
